Data on 28 compounds can be found in US9879023B2, “Therapeutic compounds” (Gilead Sciences, Inc., priority 2011, dated 2018).

In general, EC50 refers to the concentration at which the effect is half-maximal.

SMILES strings stand for the structures.

One test relates to HIV-IIIb (MT-4 cells). Kind of test: Test A: Antiviral Assays in MT4 Cells. Type of test: cell-based. The note with it: Human immunodeficiency virus 1, IIIB, MT4, 120 h, MT-4 cells infected with HIV-IIIb (0.004 m.o.i.), 5 days incubation, CellTiter-Glo readout; read-out: EC50. How it is done:
Test A: Antiviral Assays in MT4 Cells
For the antiviral assay utilizing MT-4 cells, 0.4 μL of […] test concentration of 3-fold serially diluted compound in DMSO was added to 40 μL of cell growth medium (RPMI 1640, 10% FBS, 1% penicilline/Streptomycine, 1% L-Glutamine, 1% HEPES) in each well of 384-well assay plates (10 concentrations) in quadruplicate.
1 mL aliquots of 2×10e6 MT-4 cells are pre-infected for 1 and 3 hrs respectively, @37° C. with 25 uL (MT4) or of either cell growth medium (mock-infected) or a fresh 1:250 dilution of an HIV-IIIb concentrated ABI stock (0.004 m.o.i. for MT4 cells). Infected and uninfected cells are diluted in cell growth medium and 35 uL of 2000 (for MT4) cells is added to each well of the assay plates.
Assay plates were then incubated in a 37° C. incubator. After 5 days of incubation, 25 μl of 2× concentrated CellTiter-Glo™ Reagent (catalog # G7573, Promega Biosciences, Inc., Madison, Wis.) was added to each well of the assay plate. Cell lysis was carried out by incubating at room temperature for 2-3 min and then chemiluminescence was read using the Envision reader (PerkinElmer). […]
(In general: ATP-based viability assays read luminescence as a measure of living cells.)
Consider `Cc1cc2nc(C3CCC3)sc2c(-c2ccc3c4c(ccnc24)CCO3)c1[C@H](OC(C)(C)C)C(=O)O` (atropisomer, axis not shown) [Compound 82, (S)-2-tert-butoxy-2-((S)-2-cyclobutyl-7-(2,3-dihydropyrano[4,3,2-de]quinolin-7-yl)-5-methylbenzo[d]thiazol-6-yl)acetic acid], for which the EC50 is 40.2 nM.
In the case of `Cc1cc2nc(C(C)C)sc2c(-c2ccc3c4c(ccnc24)CCO3)c1[C@H](OC(C)(C)C)C(=O)O` (atropisomer, axis not shown) [Compound 88, (S)-2-tert-butoxy-2-((S)-7-(2,3-dihydropyrano[4,3,2-de]quinolin-7-yl)-2-isopropyl-5-methylbenzo[d]thiazol-6-yl)acetic acid], the EC50 was found to be 13.3 nM.
Consider `Cc1cc2nc(C(F)F)sc2c(-c2ccc3c4c(ccnc24)CCO3)c1[C@H](OC(C)(C)C)C(=O)O` (atropisomer, axis not shown) [Compound 92, (S)-2-tert-butoxy-2-((S)-2-(difluoromethyl)-7-(2,3-dihydropyrano[4,3,2-de]quinolin-7-yl)-5-methylbenzo[d]thiazol-6-yl)acetic acid], for which the EC50 came to 353 nM.
With `CC(=O)Nc1nc2cc(C)c([C@H](OC(C)(C)C)C(=O)O)c(-c3ccc4c5c(ccnc35)CCO4)c2s1` (atropisomer, axis not shown) [Compound 93, (S)-2-((S)-2-acetamido-7-(2,3-dihydropyrano[4,3,2-de]quinolin-7-yl)-5-methylbenzo[d]thiazol-6-yl)-2-tert-butoxyacetic acid], the EC50 stood at 1420 nM.
In the case of `Cc1cc2ncsc2c(-c2ccc3c4c(ccnc24)CCO3)c1[C@H](OC(C)(C)C)C(=O)O` (atropisomer, axis not shown) [Compound 95, (S)-2-tert-butoxy-2-((S)-7-(2,3-dihydropyrano[4,3,2-de]quinolin-7-yl)-5-methylbenzo[d]thiazol-6-yl)acetic acid], the EC50 amounted to 655 nM.
For `CNC(=O)c1nc2cc(C)c([C@H](OC(C)(C)C)C(=O)O)c(-c3ccc4c5c(ccnc35)CCO4)c2s1` (atropisomer, axis not shown) [Compound 97, (S)-2-tert-butoxy-2-((S)-7-(2,3-dihydropyrano[4,3,2-de]quinolin-7-yl)-5-methyl-2-(methylcarbamoyl)benzo[d]thiazol-6-yl)acetic acid], the EC50 came to 1240 nM.
On to `Cc1cc2nc(C(=O)NCCc3ccccc3)sc2c(-c2ccc3c4c(ccnc24)CCO3)c1[C@H](OC(C)(C)C)C(=O)O` (atropisomer, axis not shown) [Compound 98, (S)-2-tert-butoxy-2-((S)-7-(2,3-dihydropyrano[4,3,2-de]quinolin-7-yl)-5-methyl-2-(phenethylcarbamoyl)benzo[d]thiazol-6-yl)acetic acid], for which the EC50 was determined as 2510 nM.
Turning to `COc1ccc(CNC(=O)c2nc3cc(C)c([C@H](OC(C)(C)C)C(=O)O)c(-c4ccc5c6c(ccnc46)CCO5)c3s2)cc1` (atropisomer, axis not shown) [Compound 99, (S)-2-tert-butoxy-2-((S)-7-(2,3-dihydropyrano[4,3,2-de]quinolin-7-yl)-2-(4-methoxybenzylcarbamoyl)-5-methylbenzo[d]thiazol-6-yl)acetic acid], the EC50 was found to be 560 nM.
In the case of `Cc1cc2ncsc2c(-c2ccc(Cl)cc2)c1[C@H](OC(C)(C)C)C(=O)O` [Compound 5L, (S)-2-tert-butoxy-2-(7-(4-chlorophenyl)-5-methylbenzo[d]thiazol-6-yl)acetic acid], the EC50 came out at 2950 nM.
Take `Cc1nc2cc(C)c([C@H](OC(C)(C)C)C(=O)O)c(-c3ccc(Cl)cc3)c2s1` [Compound 7, (S)-2-tert-butoxy-2-(7-(4-chlorophenyl)-2,5-dimethylbenzo[d]thiazol-6-yl)acetic acid]: the EC50 is 257 nM.
For `Cc1cc2nc(CC(C)C)sc2c(-c2ccccc2)c1[C@H](OC(C)(C)C)C(=O)O` [Compound 8K, (S)-2-tert-butoxy-2-(2-isobutyl-5-methyl-7-phenylbenzo[d]thiazol-6-yl)acetic acid], the EC50 is 641 nM.
As for `CCc1nc2cc(C)c([C@H](OC(C)(C)C)C(=O)O)c(-c3ccc(Cl)cc3)c2s1` [Compound 9], the EC50 amounted to 118 nM.
Turning to `Cc1cc2nc(C3CC3)sc2c(-c2ccc(Cl)cc2)c1[C@H](OC(C)(C)C)C(=O)O` [Compound 10], the EC50 was 121 nM.
As to `Cc1cc2nc(N(C)C)sc2c(-c2ccc(Cl)cc2)c1[C@H](OC(C)(C)C)C(=O)O` [Compound 12], the EC50 stood at 113 nM.
In the case of `Cc1cc2nc(C#CC3CC3)sc2c(-c2ccc(Cl)cc2)c1[C@H](OC(C)(C)C)C(=O)O` [Compound 14], the EC50 turned out to be 718 nM.
As to `Cc1cc2nc(C(=O)C3=CCC3)sc2c(-c2ccc(Cl)cc2)c1[C@H](OC(C)(C)C)C(=O)O` [Compound 14b], the EC50 stood at 480 nM.
Consider `Cc1cc2nc(C3CC3)sc2c(-c2ccc3c4c(ccnc24)CCO3)c1[C@H](OC(C)(C)C)C(=O)O` [Compound 22, (S)-2-tert-butoxy-2-((R)-2-cyclopropyl-7-(2,3-dihydropyrano[4,3,2-de]quinolin-7-yl)-5-methylbenzo[d]thiazol-6-yl)acetic acid], for which the EC50 stood at 170 nM.
With `Cc1cc2nc(C(N)=O)sc2c(-c2ccc3c4c(ccnc24)CCO3)c1[C@H](OC(C)(C)C)C(=O)O` [Compound 40, (S)-2-tert-butoxy-2-((S)-2-carbamoyl-7-(2,3-dihydropyrano[4,3,2-de]quinolin-7-yl)-5-methylbenzo[d]thiazol-6-yl)acetic acid], the EC50 amounted to 722 nM.
On to `Cc1cc2nc(N(C)C)sc2c(-c2ccc3c4c(ccnc24)CCO3)c1[C@H](OC(C)(C)C)C(=O)O` [Compound 42, (S)-2-tert-butoxy-2-((S)-7-(2,3-dihydropyrano[4,3,2-de]quinolin-7-yl)-2-(dimethylamino)-5-methylbenzo[d]thiazol-6-yl)acetic acid], for which the EC50 was 10.3 nM.

Still in this test, the particulars now being: MT-4 cells infected with HIV-IIIb (0.004 m.o.i.), 5 days incubation, CellTiter-Glo readout; read-out: EC50.
Regarding `Cc1cc2nc(C3CCCC3)sc2c(-c2ccc3c4c(ccnc24)CCO3)c1[C@H](OC(C)(C)C)C(=O)O` (atropisomer, axis not shown) [Compound 80, (S)-2-tert-butoxy-2-((S)-2-cyclopentyl-7-(2,3-dihydropyrano[4,3,2-de]quinolin-7-yl)-5-methylbenzo[d]thiazol-6-yl)acetic acid], the EC50 is 136 nM.
`Cc1cc2nc(C3CCCC3)sc2c(-c2ccc3c4c(ccnc24)CCO3)c1[C@H](OC(C)(C)C)C(=O)O` (atropisomer, axis not shown) [Compound 81, (S)-2-tert-butoxy-2-((R)-2-cyclopentyl-7-(2,3-dihydropyrano[4,3,2-de]quinolin-7-yl)-5-methylbenzo[d]thiazol-6-yl)acetic acid]: the EC50 turned out to be 27400 nM.
On to `Cc1cc2nc(CC(C)C)sc2c(-c2ccc3c4c(ccnc24)CCO3)c1[C@H](OC(C)(C)C)C(=O)O` (atropisomer, axis not shown) [Compound 83, (S)-2-tert-butoxy-2-((S)-7-(2,3-dihydropyrano[4,3,2-de]quinolin-7-yl)-2-isobutyl-5-methylbenzo[d]thiazol-6-yl)acetic acid], for which the EC50 came out at 93.2 nM.
For the compound `Cc1cc2nc(CC(C)C)sc2c(-c2ccc3c4c(ccnc24)CCO3)c1[C@H](OC(C)(C)C)C(=O)O` (atropisomer, axis not shown) [Compound 84, (S)-2-tert-butoxy-2-((R)-7-(2,3-dihydropyrano[4,3,2-de]quinolin-7-yl)-2-isobutyl-5-methylbenzo[d]thiazol-6-yl)acetic acid], the EC50 amounted to 14900 nM.
Consider `Cc1cc2nc(C3CC3)sc2c(-c2ccc3c(c2Cl)NCCO3)c1[C@H](OC(C)(C)C)C(=O)O` (atropisomer, axis not shown) [Compound 86, (S)-2-tert-butoxy-2-((S)-7-(5-chloro-3,4-dihydro-2H-benzo[b][1,4]oxazin-6-yl)-2-cyclopropyl-5-methylbenzo[d]thiazol-6-yl)acetic acid], for which the EC50 came to 61.7 nM.
Turning to `Cc1cc2nc(C3CC3)sc2c(-c2ccc3c(c2Cl)NCCO3)c1[C@H](OC(C)(C)C)C(=O)O` (atropisomer, axis not shown) [Compound 87, (S)-2-tert-butoxy-2-((R)-7-(5-chloro-3,4-dihydro-2H-benzo[b] [1,4]oxazin-6-yl)-2-cyclopropyl-5-methylbenzo[d]thiazol-6-yl)acetic acid], the EC50 was 1570 nM.
On the same count and under the same terms, with `Cc1cc2nc(C3CC3)sc2c(-c2ccc3c4c(ccnc24)CCO3)c1[C@H](OC(C)(C)C)C(=O)O` [Compound 21, (S)-2-tert-butoxy-2-((S)-2-cyclopropyl-7-(2,3-dihydropyrano[4,3,2-de]quinolin-7-yl)-5-methylbenzo[d]thiazol-6-yl)acetic acid] the figure was 14.9 nM; with `Cc1cc2nc(N3CCC3)sc2c(-c2ccc3c4c(ccnc24)CCO3)c1[C@H](OC(C)(C)C)C(=O)O` [Compound 35, (S)-2-((S)-2-(azetidin-1-yl)-7-(2,3-dihydropyrano[4,3,2-de]quinolin-7-yl)-5-methylbenzo[d]thiazol-6-yl)-2-tert-butoxyacetic acid], 12.7 nM; with `Cc1cc2nc(N3CCC3)sc2c(-c2ccc3c4c(ccnc24)CCO3)c1[C@H](OC(C)(C)C)C(=O)O` [Compound 36, (S)-2-((R)-2-(azetidin-1-yl)-7-(2,3-dihydropyrano[4,3,2-de]quinolin-7-yl)-5-methylbenzo[d]thiazol-6-yl)-2-tert-butoxyacetic acid], 6210 nM.
